Drawing on ChEMBL document CHEMBL1122983, “Synthesis and dopaminergic activity of (R)- and (S)-4-hydroxy-2-(di-n-propylamino)indan” (J Med Chem, 1985), this text covers ID50 for 2 molecules.

The assay concerns the target Dopamine receptor (Homo sapiens) (UniProt P14416+P35462+P21918+P21917+P21728). The following applies: Felis catus.

Description: Inhibition of stimulation-induced tachycardia via the presynaptic dopamine receptors

In turn, `CCCN(CCC)[C@@H]1Cc2cccc(O)c2C1` yielded an ID50 of 7 nM.
For the molecule `CCCN(CCC)[C@H]1Cc2cccc(O)c2C1`, the ID50 came to 720 nM.
